Data: PubChem BioAssay (NCI)
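Interpolation was linear, between the two tested concentrations surrounding the appropriate level; five concentrations were tested over 48 hours in 96-well plates. Abbreviation: GI50, concentration required for 50% inhibition of growth. TGI denotes the concentration required for complete inhibition of growth.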

Tests used:
Assay in all cases: DTP human tumour cell line panel, 48 h
HCT-116 colon = tested on: HCT-116 colon
OVCAR-3 ovarian = tested on: OVCAR-3 ovarian
OVCAR-5 ovarian = tested on: OVCAR-5 ovarian
SF-268 CNS = tested on: SF-268 CNS
HCT-15 colon = tested on: HCT-15 colon
CCRF-CEM leukemia = tested on: CCRF-CEM leukemia
UACC-62 melanoma = tested on: UACC-62 melanoma
M14 melanoma = tested on: M14 melanoma
KM12 colon = tested on: KM12 colon
UACC-257 melanoma = tested on: UACC-257 melanoma
SF-539 CNS = tested on: SF-539 CNS

Row | Compound | TGI (HCT-116 colon) [µM] | TGI (OVCAR-3 ovarian) [µM] | TGI (OVCAR-5 ovarian) [µM] | TGI (SF-268 CNS) [µM] | TGI (HCT-15 colon) [µM] | TGI (CCRF-CEM leukemia) [µM] | TGI (UACC-62 melanoma) [µM] | TGI (M14 melanoma) [µM] | TGI (KM12 colon) [µM] | TGI (UACC-257 melanoma) [µM] | TGI (SF-539 CNS) [µM] | GI50 (OVCAR-3 ovarian) [µM] | GI50 (OVCAR-5 ovarian) [µM] | GI50 (SF-268 CNS) [µM] | GI50 (HCT-15 colon) [µM] | GI50 (SF-539 CNS) [µM] | GI50 (UACC-62 melanoma) [µM] | GI50 (KM12 colon) [µM] | GI50 (UACC-257 melanoma) [µM] | GI50 (CCRF-CEM leukemia) [µM]
1 | Cc1c(Cl)c(S(N)(=O)=O)cc(S(N)(=O)=O)c1NC(=O)c1ccc(Cl)cc1 | > 100 | > 100 | > 100 | > 100 | > 100 | > 100 | > 100 | > 100 | > 100 | > 100 | – | – | – | – | – | – | – | – | – | –
2 | CC1(C)[C@@H]2C[C@H]1C(Cc1ccccc1C[C@H]1c3cc(-c4ccccn4)ncc3[C@H]3C[C@@H]1C3(C)C)c1cc(-c3ccccn3)ncc12 (stereo not given in full) | 10.1 | 1.45 | > 100 | > 36.2 | > 100 | 0.899 | 4.15 | – | 13.4 | – | 8.42 | – | – | – | – | – | – | – | – | –
3 | C/C=C1/CN2CC[C@@H]3c4ccccc4N4[C@H](C(=O)OC)[C@H]1C[C@H]2[C@]34/C=C/C1=COC[C@@H]2[C@H]1C[C@H]1c3c(c4ccccc4n3C)C[C@@H]2N1C | 7.61 | 9.66 | 7.99 | 7.16 | 7.83 | 9.49 | 9.29 | 7.9 | – | 8.51 | 7.61 | – | – | – | – | – | – | – | – | –
4 | Nc1nc(SCCC/C=C/B(O)O)nc2c1ncn2C1OC(CO)C(O)C1O (stereo not given) | > 243 | > 243 | > 243 | > 243 | > 243 | > 243 | > 243 | > 243 | > 243 | > 243 | > 243 | – | – | – | – | – | – | – | – | –
5 | COc1cc2c(cc1OC)C(C1(O)CCCCC1)NCC2 (stereo not given) | > 100 | > 100 | > 100 | > 100 | > 100 | > 100 | > 100 | > 100 | > 100 | > 100 | – | – | – | – | – | – | – | – | – | –
6 | O=[N+]([O-])/C=C/c1cccc(F)c1 | 8.86 | 7.38 | – | 29.4 | 5.6 | 5.5 | 22.5 | 10.7 | 10.3 | 15.8 | 20.8 | – | – | – | – | – | – | – | – | –
7 | Nc1nc(Cl)cc(NCCCCO)n1 | > 100 | > 10 | > 100 | > 100 | > 100 | > 100 | > 100 | > 10 | > 100 | > 100 | > 100 | – | – | – | – | – | – | – | – | –
8 | CC(=O)O[C@H]1CC[C@]2(C)[C@H]3C(=O)C=C4[C@@H]5C[C@](C)(C(=O)N6CCCNCC6)CC[C@]5(C)CC[C@@]4(C)[C@]3(C)CC[C@H]2C1(C)C | – | 3.29 | 2.96 | 3.58 | 2.97 | – | 3.13 | – | 3.21 | 4.26 | 3 | 1.76 | 1.6 | 1.8 | 1.48 | 1.62 | 1.69 | 1.71 | 1.98 | –
9 | C#CCCCCC#CC1CCCC1C1=CC(=O)c2ccccc21 (stereo not given) | 2.91 | 17.8 | 23.7 | 11.8 | 19.9 | – | 6.44 | 17 | 19.6 | 25.2 | 21.1 | – | – | – | – | – | – | – | – | –
10 | O=C(N/N=C/c1cc(Br)cc(Br)c1[O-])c1ccccc1O.O=C(N/N=C/c1cc(Br)cc(Br)c1[O-])c1ccccc1O.[Cl-].[Fe+3] | 10.2 | 12.8 | 7.61 | 33.1 | 3.84 | > 100 | 7.99 | 9.96 | 81.6 | 29.3 | 5.35 | – | – | – | – | – | – | – | – | 38.6
11 | CN[C@@H]1[C@H](O)[C@H](NC)[C@H]2O[C@@]3(O)C(=O)C[C@@H](C)O[C@H]3O[C@@H]2[C@H]1O | > 100 | > 100 | > 100 | > 100 | > 100 | > 100 | > 100 | > 100 | > 100 | > 100 | > 100 | – | – | – | – | – | – | – | – | –
